Source: ChEMBL document CHEMBL1629535, “Novel small molecule inhibitors of MDR Mycobacterium tuberculosis by NMR fragment screening of antigen 85C” (2010)
≈ marks a conversion by molar mass, not a printed value.

Columns and labels:
Format in all cases: functional
[1] = system: Mycolicibacterium smegmatis; assay: Growth inhibition of Mycobacterium smegmatis
[2] = system: Mycobacterium tuberculosis; assay: Growth inhibition of Mycobacterium tuberculosis H37 by radiometric BACTEC 460 assay
Mycolicibacterium aurum = assay: Growth inhibition of multidrug resistance Mycobacterium aurum

Structure (SMILES) | MIC [1] | MIC [2] | MIC (Mycolicibacterium aurum)
CCC1CCc2c(sc(N)c2C#N)C1 (configuration not stated) | 32 µg/mL (≈ 155 µM) | 50 µg/mL (≈ 242 µM) | –
CCCC1CCc2c(sc(N)c2C#N)C1 (configuration not stated) | 16 µg/mL (≈ 72.6 µM) | 50 µg/mL (≈ 227 µM) | –
CCC1CCc2c(sc(N)c2C(N)=O)C1 (configuration not stated) | 64 µg/mL (≈ 285 µM) | – | –
CC1CCc2c(sc(N)c2C(N)=O)C1 (configuration not stated) | > 32 µg/mL | – | –
CCCC1CCc2c(sc(N)c2C(N)=O)C1 (configuration not stated) | 64 µg/mL (≈ 269 µM) | – | –
CCCOc1ccc2nc(N)sc2c1 | 32 µg/mL (≈ 154 µM) | 20 µg/mL (≈ 96 µM) | –
N#Cc1c(N)sc2c1CCCCC2 | 64 µg/mL (≈ 333 µM) | > 500 µg/mL | –
[N-]=[N+]=NC[C@H]1O[C@H](O[C@H]2O[C@H](CO)[C@@H](O)[C@H](O)[C@H]2O)[C@H](O)[C@@H](O)[C@@H]1O | – | – | 200 µg/mL (≈ 544 µM)
